Earlier results, collected in patent publication US20150290158A1, “X-RAY CONTRAST MEDIA COMPOSITIONS AND METHODS OF USING THE SAME TO TREAT, REDUCE OR DELAY THE ONSET OF CNS INFLAMMATION AND INFLAMMATION ASSOCIATED CONDITIONS” (priority 2012, published 2015).
Peptide text beside a SMILES is read from it.

Assays:
mast cell degranulation = settings: in vitro, immunological and non-immunological stimuli
[1] = system: allergen induced nasal obstruction; settings: used as a nasal spray, in vivo
TNF-alpha = settings: in vitro
[2] = molecular target: angiotensin converting enzyme (ACE) (Homo sapiens, UniProt P12821); settings: compared with commercial iopamidol (contains chelator); from Lasser et al., 1990
Chain of angiotensin converting enzyme (ACE) (P12821 30-1306, species assumed): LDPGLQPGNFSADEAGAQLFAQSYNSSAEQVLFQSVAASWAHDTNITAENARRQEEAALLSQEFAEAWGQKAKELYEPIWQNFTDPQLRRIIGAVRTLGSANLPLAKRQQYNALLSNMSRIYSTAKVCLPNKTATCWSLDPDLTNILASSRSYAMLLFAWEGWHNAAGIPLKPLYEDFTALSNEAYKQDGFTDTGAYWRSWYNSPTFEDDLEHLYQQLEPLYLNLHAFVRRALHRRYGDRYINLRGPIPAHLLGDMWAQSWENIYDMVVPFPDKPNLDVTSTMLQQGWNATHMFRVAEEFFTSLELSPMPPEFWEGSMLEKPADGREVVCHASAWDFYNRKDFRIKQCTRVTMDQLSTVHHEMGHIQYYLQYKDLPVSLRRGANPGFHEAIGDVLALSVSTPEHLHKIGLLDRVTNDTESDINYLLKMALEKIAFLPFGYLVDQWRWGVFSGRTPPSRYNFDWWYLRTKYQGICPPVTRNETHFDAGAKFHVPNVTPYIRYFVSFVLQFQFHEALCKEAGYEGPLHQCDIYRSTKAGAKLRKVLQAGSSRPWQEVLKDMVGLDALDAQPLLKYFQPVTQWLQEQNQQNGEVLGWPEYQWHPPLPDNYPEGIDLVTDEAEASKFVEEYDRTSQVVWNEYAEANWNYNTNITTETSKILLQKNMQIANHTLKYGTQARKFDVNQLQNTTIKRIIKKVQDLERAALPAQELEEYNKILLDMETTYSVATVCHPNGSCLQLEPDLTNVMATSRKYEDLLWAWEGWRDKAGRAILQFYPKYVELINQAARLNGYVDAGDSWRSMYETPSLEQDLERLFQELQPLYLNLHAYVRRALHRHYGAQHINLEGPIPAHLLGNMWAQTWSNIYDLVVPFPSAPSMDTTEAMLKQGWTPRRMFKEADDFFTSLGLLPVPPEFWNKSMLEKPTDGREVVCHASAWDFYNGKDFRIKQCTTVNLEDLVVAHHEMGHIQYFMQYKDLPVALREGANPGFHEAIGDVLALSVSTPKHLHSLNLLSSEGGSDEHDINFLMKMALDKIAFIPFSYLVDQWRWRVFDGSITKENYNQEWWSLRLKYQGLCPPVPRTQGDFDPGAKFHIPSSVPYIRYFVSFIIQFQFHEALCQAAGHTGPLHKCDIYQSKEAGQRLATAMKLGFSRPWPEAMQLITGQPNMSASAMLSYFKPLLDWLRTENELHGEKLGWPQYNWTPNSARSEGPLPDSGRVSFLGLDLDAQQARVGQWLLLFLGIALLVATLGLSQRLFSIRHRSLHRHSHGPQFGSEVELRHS

## CC(=O)N[C@@H](CC(=O)[O-])C(=O)N[C@@H](CCC(=O)[O-])C(=O)O.[Mg+2] [magnesium salt of n-acetyl aspartyl glutamic acid] (Ac-Asp-Glu-OH)
Mast cell degranulation
  mast cell degranulation: inhibit mast cell degranulation
[1]
  allergen induced nasal obstruction: reduce allergen induced nasal obstruction

## O=C(O)c1cc(=O)c2c(OCC(O)COc3cccc4oc(C(=O)O)cc(=O)c34)cccc2o1 [Sodium cromoglycate]
TNF-alpha
  inhibition of TNF-alpha: inhibited TNF-alpha in vitro

## C[C@H](O)C(=O)Nc1c(I)c(C(=O)NC(CO)CO)c(I)c(C(=O)NC(CO)CO)c1I [purified iopamidol, iopamidol]
[2]
  inhibition of ACE: diminishes the inhibition ACE significantly

## CCCc1c2oc(C(=O)[O-])cc(=O)c2cc2c(=O)cc(C(=O)[O-])n(CC)c12.[Na+].[Na+] [nedocrimal sodium]
TNF-alpha
  inhibition of TNF-alpha: inhibited TNF-alpha in vitro
